Measurements: patent US5395611A, “Phenolic amine depigmenting and antimelanoma agents” (The Governors of the University of Alberta, priority 1992, dated 1995)
Several values for one entry are separate records, joined by “and”; a condition that tells them apart may be missing. Equal entries are not always repeated.

Columns and labels:
mushroom tyrosinase = test: Enzyme kinetics for tyrosinase; type: biochemical
Protocol: (§1) Mushroom tyrosinase (400 units/mg) and plasma MAO (1000 units/gm) were obtained from Sigma Chemical Co. (St. Louis, Mo., USA). A reaction mixture consisted of a substrate of 7 to 8 different concentrations (40 to 500 μM for mushroom tyrosinase and 20 to 200 μM for MAO) and of either mushroom tyrosinase (2.5 μg) or MAO (10 μg) in 1.0 mL of 0.05M sodium phosphate buffer, pH 6.8 and 7.4 respectively. The reactions were carried out at 37° C. in a shaking water bath, and stopped by taking 100 μL of the reaction mixture and adding it to 900 μL of 0.4M HCLO4. The disappearance of substrate was followed using HPLC (high pressure liquid chromatography) Km and Vmax values were calculated from the Lineweaver-Burk plots.
^a mushroom tyrosinase; 11 unit/ml of tyrosinase was used. One enzyme
unit will cause an increase in A280 of 0.001 per min at pH 6.8 at
25° C. using Ltyrosine as substrate.

[1] = system: plasma monoamine oxidase (MAO); test: Enzyme kinetics for monoamineoxidase (plasma MAO); type: biochemical
Protocol: as §1

in vivo = settings: mouse, ip
Protocol: 3:1-85 1972. In accordance with this Protocol, ten to fifteen mice were used in each test group. They were weighed and randomized at day one after s.c. inoculation of B16 melanoma cells. From day five, the phenolic melanin precursors were administered i.p. daily for nine days. The test compounds were dissolved in normal saline, and sterilized by heating to 100° C. for 2 minutes. […] They were administered j.p. with the following doses: 400 mg/Kg - 4-S-CAP; 200 to 300 mg/Kg - 4-S-CAP; and 200 to 1200 mg/Kg - N-Ac-4-S-CAP. A catalytic amount of L-dopa, 25 mg/Kg and antidecarboxylase, carbidopa, 400 mg/Kg, were also administered. Carbidopa was given one hour prior to L-dopa administration. DTIC (NSC 4538) was used as a control drug at a dose of 60 mg/Kg. Acute toxicity of 4-S-CP and 4-S-CAP was evaluated from 100 to 1600 mg/Kg.
The B16 mouse melanoma was maintained by s.c. inoculation of tumour cells into the back of C57BL7J mice (5 to 6 weeks, female). […] Briefly, excised tumours were homogenized in normal saline. The homogenized tumour cells were then passed through a sterile 80 mesh stainless steel screen, washed with normal saline, centrifuged (500 g. for 10 minutes) and resuspended in normal saline. Suspensions of viable melanoma cells at the concentration of 1×10^6 per 0.1 ml were inoculated s.c. into both the right and left inguinal areas of C57BL/6J mice (female, 5 to 6 weeks old, 18 to 20 gm).

B16 melanoma = test: In vivo growth inhibition of s.c. inoculated B16 melanoma; design: species or system mouse; settings: for % Gi (growth inhibition): 200 mg/Kg
Protocol: Briefly, excised tumours were homogenized in normal saline.
The in vivo antimelanoma effect of the compounds were evaluated by percent growth inhibition of inoculated tumour (% g.i.). The percent g.i. was computed from the mean tumour volume at day 12 or 13 of the experiments; i.e., 100× (1- treated group/control group). Tumour volume was calculated by the following formula:
tumour volume=long axis×(short axis)^2 ×1/2.

B16F10 melanoma colonies = test: Melanoma-colony formation in the lungs; type: in vivo, mouse
Protocol: Murine B16F10 melanoma cell line with a strong metastatic property to form tumour colonies in the lungs was obtained from Dr. Longenecker, Department of Immunology, University of Alberta. Such cell line is well recognized and readily available as reported in Miura et al, supra. The cells were grown in T-75 flasks in dulbecco's MEM available from Gipco Lab Inc., Grand Island, N.Y., supplemented with 10% fetal calf serum, also obtained from Gipco, penicillin (100 μ/ml) and streptomycin (100 μg/ml). The cells were incubated at 37° C. in humidified atmosphere of 5% CO2 in air. […] Viable cells were identified by trypan blue dye exclusion and counted. The cell suspension was diluted to the desired concentration. […] On day zero, the mice were inoculated via the lateral tail vein with 5×10^4 cells in 0.2 ml of N saline. The test drugs were dissolved in normal saline, sterilized by membrane filtration, and administered in a dose of 300 mg/Kg (4 -S-CAP) or 900 mg/Kg (N-Ac-4-S-CAP); starting on day five, the control solution or drug was injected i.p. daily for 14 days. On day 26, the mice were killed by cervical dislocation, their lungs were removed, and the number of melanoma colonies was counted under a dissecting microscope. The results were expressed as percentage reduction in the number of colonies: [a-b/a]×100, where a=colonies in control group and b=colonies in experimental group.

black hair follicles = test: Depigmentation of new hair (eumelanin/PTCA content); type: in vivo, C57BL/6J black mice
Protocol: Female progeny were used in this testing when approximately 8 weeks old and weighing 17 grams.
Thirty mice were randomized into 6 groups of 5 (1 control and 1 for each compound). Starting on day 1, daily for 14 days the agent was injected i.p. or was infiltrated s.c. in an area where hair follicles had been plucked; the dose was 300 mg/kg body weight.
In the same 30 mice, hair follicles were harvested on day 22 (early telogen phase) and their eumelanin content analyzed. […] Briefly, a 10-mg hair sample is homogenized in water at a concentration of 10 mg/ml; the 200-μl homogenate is transferred to a screw-capped test tube, mixed with 1M H2 SO4 (800 μL) and oxidized with 3% KMnO4. The product, pyrrole-2,3,5-tricarboxylic acid (PTCA), is analyzed by HPLC with a UVL detector; samples are measured in duplicate. The eumelanin content is expressed as PTCA (ng/mg) against the PCTA content of BALB/c albino mice as control (≤10 ng/mg, the background value with our method, in which 1 ng corresponds roughly to a eumelanin content of 50 ng), and the degree of depigmentation is expressed as a percentage: (PTCA content of control sample minus PTCA content of experimental sample)/(PCTA content of control sample)×100.

melanocytes = test: Light and electron microscopy of follicular melanocytes; type: in vivo, mice; settings: i.p.
Protocol: In […] of 4 mice (1 control and 1 for each compound) were treated daily with the control or compound injected i.p. The compounds tested were 4-S-CAP, N-Ac-4-S-CAP and α-Me-4-S-CAP. Samples of skin and regrowing hair follicles were excised under brief general anaesthesia on day 10 (late anagen phase), fixed in Karnovsky's solution (2.5% glutaraldehyde and 2.5% paraformaldehyde in 011M cacodylate buffer), and refixed in 1% osmium tetroxide in cadodylate buffer. Tissues were stained en bloc with 1.5% uranyl acetate in o.1M veronal buffer for 30 min, dehydrated in graded ethanol solutions, embedded in epoxy resin, and sectioned with a Potter-Blum ultramicrotome MT II. Sections 1.0 μm thick were stained with methylene blue for light microscopy, thin sections were stained with led citrate for electron microscopy.

melanoma = settings: in words; cited from earlier work
[2] = in words; cited from earlier work
[3] = acute toxicity, evaluated 100 to 1600 mg/Kg (Miura et al); cited from earlier work
[4] = s.c., 300 mg/kg daily for 14 days, hair day 22

NCCSc1ccc(O)cc1 [4-S-CAP, 4-S-cysteaminylphenol, reference compound]
Substrate for tyrosinase (mushroom tyrosinase; in words): substrate for both plasma MAO and tyrosinase | Km (mushroom tyrosinase; mushroom tyrosinase, pH 6.8, 37° C.): 117 µM | Substrate for plasma MAO ([1]; in words): substrate for both plasma MAO and tyrosinase | Km ([1]; plasma MAO, pH 7.4, 37° C.): 52.6 µM | MTD (in vivo): 200 to 300 mg/kg | % Gi (growth inhibition) (B16 melanoma; Experiment I): 54.0% | % Gi (growth inhibition) (B16 melanoma; Experiment II): 25.1% | Growth inhibition of B16 melanoma (B16 melanoma; in words): greater anti-melanoma effect at 200 mg/Kg than N-Ac-4-S-CAP | Colonies, % control (B16F10 melanoma colonies; 300 mg/kg i.p. daily for 14 days, day 26): 32.4% and 30% | Number of B16F10 melanoma colonies (B16F10 melanoma colonies; in words): significantly reduced | Depigmentation (black hair follicles; i.p., 300 mg/kg daily for 14 days, hair day 22): 87% | Depigmentation of new growth of black hair follicles (black hair follicles; in words): i.p. administration induced more depigmentation than s.c. | Depigmentation (black hair follicles; [4]): 47% | PTCA Content (black hair follicles; [4]): 458.3 ± 107.6 ng/mg | Electron microscopy of melanocytes/melanosomes (melanocytes; 10 days): contained immature melanosomes at stages II and III | Light microscopy of hair follicles (melanocytes; day 10): the hair follicles contained functioning melanocytes and melanin pigments transferred into keratonocytes, although they were much sparser than in the controls | Inhibition of melanoma growth (melanoma): exhibited inhibition of melanoma growth | Prolonging lifespan of melanoma-bearing mice (melanoma): potent agent in prolonging the lifespan of melanoma-bearing mice | Hypotensive effect [2]: hypotensive | Lethal dose [3]: 400 mg/kg
